Assays:
Test in all cases: biochemical
[1] = biological target: T1, panel of 374 wild-type kinases (Homo sapiens, UniProt O60285); details: read-out: % Enzyme Activity (relative to DMSO controls), ARK5/NUAK1
T1 construct: purchased Reaction Biology Corporation
T1 sequence (O60285 1-661): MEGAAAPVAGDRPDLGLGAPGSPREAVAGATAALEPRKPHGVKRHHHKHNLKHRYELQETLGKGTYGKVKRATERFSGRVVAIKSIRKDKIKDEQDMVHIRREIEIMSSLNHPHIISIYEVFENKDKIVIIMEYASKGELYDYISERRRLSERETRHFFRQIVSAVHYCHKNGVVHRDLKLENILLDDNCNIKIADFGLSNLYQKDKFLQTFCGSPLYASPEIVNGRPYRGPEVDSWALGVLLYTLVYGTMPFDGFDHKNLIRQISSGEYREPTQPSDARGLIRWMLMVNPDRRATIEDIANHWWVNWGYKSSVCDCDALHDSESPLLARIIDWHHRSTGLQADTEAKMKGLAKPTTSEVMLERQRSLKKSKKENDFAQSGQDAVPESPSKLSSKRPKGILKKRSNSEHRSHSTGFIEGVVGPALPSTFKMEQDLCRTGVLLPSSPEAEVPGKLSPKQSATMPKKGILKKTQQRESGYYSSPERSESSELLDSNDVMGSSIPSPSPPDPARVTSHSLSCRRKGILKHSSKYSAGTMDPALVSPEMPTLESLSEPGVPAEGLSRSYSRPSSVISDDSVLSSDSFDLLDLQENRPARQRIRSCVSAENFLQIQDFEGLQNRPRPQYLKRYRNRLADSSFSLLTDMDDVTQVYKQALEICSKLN

[2] = biological target: T2, panel of 374 wild-type kinases (Homo sapiens, UniProt P08631); details: read-out: % Enzyme Activity (relative to DMSO controls), HCK
T2 construct: purchased Reaction Biology Corporation
T2 sequence (P08631 whole entry): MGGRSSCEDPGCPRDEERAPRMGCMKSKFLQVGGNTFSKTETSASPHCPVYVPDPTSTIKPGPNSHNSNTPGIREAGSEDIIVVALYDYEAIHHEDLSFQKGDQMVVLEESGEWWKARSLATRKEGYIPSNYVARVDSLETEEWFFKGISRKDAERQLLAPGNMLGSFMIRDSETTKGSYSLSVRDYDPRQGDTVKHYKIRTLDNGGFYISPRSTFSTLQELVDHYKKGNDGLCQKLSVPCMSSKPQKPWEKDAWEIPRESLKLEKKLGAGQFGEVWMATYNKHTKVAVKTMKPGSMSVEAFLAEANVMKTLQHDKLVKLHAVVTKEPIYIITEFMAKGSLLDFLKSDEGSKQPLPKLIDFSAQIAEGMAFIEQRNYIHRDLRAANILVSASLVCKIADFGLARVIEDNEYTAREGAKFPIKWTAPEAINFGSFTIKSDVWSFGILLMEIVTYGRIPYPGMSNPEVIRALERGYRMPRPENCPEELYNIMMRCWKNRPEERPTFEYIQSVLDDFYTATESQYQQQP

[3] = biological target: T3, panel of 374 wild-type kinases (Homo sapiens, UniProt P51956); details: read-out: % Enzyme Activity (relative to DMSO controls), NEK3
T3 construct: purchased Reaction Biology Corporation
T3 sequence (P51956 1-506): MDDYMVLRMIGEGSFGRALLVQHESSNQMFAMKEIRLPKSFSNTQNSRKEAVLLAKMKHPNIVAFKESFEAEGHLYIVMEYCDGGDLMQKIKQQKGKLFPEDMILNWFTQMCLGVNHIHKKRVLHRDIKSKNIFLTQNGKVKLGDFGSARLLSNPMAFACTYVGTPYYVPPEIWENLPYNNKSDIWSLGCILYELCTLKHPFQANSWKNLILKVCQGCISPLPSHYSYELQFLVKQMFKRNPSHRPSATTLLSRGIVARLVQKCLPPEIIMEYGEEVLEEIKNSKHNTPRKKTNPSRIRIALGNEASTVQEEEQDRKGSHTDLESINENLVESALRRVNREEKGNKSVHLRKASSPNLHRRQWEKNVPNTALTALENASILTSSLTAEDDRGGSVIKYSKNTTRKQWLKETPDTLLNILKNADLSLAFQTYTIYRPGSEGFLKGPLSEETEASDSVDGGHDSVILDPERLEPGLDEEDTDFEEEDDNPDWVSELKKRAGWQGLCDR

[4] = biological target: T4, panel of 374 wild-type kinases (Homo sapiens, UniProt Q09013); details: read-out: % Enzyme Activity (relative to DMSO controls), DMPK
T4 construct: purchased Reaction Biology Corporation
T4 sequence (Q09013 1-629): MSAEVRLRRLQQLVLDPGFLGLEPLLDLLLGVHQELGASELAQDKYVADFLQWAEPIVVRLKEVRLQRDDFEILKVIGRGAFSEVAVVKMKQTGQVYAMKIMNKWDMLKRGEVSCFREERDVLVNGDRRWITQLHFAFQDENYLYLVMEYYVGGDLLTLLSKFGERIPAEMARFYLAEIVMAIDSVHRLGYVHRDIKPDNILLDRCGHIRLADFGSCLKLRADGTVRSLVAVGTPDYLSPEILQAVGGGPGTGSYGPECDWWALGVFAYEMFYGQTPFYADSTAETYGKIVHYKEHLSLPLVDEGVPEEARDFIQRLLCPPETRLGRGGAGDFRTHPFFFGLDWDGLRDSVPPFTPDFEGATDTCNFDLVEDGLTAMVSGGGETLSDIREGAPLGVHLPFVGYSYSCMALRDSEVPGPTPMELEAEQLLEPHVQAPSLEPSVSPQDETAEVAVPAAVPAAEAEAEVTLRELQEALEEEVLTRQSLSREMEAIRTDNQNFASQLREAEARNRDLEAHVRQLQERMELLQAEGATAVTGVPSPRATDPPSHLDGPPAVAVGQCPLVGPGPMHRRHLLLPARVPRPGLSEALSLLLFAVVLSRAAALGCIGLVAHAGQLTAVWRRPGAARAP

[5] = biological target: T5, panel of 374 wild-type kinases (Homo sapiens, UniProt Q13882); details: read-out: % Enzyme Activity (relative to DMSO controls), BRK
T5 construct: purchased Reaction Biology Corporation
T5 sequence (Q13882 whole entry): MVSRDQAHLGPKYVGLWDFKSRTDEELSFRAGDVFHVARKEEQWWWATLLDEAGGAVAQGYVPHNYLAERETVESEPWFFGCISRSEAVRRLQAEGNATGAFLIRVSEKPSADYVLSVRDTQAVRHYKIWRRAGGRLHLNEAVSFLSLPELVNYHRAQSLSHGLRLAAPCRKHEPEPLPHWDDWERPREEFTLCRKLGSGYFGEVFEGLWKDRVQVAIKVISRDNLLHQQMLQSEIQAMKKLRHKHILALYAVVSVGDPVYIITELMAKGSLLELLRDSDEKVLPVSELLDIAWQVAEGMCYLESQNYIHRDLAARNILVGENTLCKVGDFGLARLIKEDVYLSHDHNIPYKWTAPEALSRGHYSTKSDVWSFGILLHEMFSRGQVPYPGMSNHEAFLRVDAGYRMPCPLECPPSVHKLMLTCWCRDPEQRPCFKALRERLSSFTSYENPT

[6] = biological target: T6, panel of 374 wild-type kinases (Homo sapiens, UniProt Q14680); details: read-out: % Enzyme Activity (relative to DMSO controls), MELK
T6 construct: purchased Reaction Biology Corporation
T6 sequence (Q14680 whole entry): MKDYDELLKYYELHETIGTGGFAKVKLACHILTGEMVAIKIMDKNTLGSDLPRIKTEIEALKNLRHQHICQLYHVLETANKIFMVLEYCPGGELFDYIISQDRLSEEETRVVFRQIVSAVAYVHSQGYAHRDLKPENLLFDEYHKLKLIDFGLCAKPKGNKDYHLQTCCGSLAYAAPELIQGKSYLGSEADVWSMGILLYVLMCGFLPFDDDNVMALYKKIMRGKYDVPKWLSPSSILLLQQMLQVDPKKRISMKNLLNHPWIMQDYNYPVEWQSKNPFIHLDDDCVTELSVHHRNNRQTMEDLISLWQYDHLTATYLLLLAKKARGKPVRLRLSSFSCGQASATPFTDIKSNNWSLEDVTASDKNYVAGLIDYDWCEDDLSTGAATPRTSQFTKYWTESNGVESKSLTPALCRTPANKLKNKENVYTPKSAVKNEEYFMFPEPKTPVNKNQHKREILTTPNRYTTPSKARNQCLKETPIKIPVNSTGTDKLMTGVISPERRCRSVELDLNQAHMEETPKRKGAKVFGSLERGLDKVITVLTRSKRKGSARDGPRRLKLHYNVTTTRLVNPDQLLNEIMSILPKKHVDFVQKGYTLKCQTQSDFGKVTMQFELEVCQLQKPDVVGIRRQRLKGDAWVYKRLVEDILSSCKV

[7] = biological target: T7, panel of 374 wild-type kinases (Homo sapiens, UniProt Q86V86); details: read-out: % Enzyme Activity (relative to DMSO controls), kinase PIM3
T7 construct: purchased Reaction Biology Corporation

SMILES: O=C(Nc1cnn(-c2csc(C(=O)NC3COC3)c2)c1)Nc1ccccc1Cl [Compound 17, 4-(4-(3-(2-chlorophenyl)ureido)-1H-pyrazol-1-yl)-N-(oxetan-3-yl)thiophene-2-carboxamide]
- remaining activity at 5 µM [1]: 97.9%
- remaining activity at 5 µM [2]: 94%
- remaining activity at 5 µM [3]: 103%
- remaining activity at 5 µM [4]: 102%
- remaining activity at 5 µM [5]: 118%
- remaining activity at 5 µM [6]: 48.7%
- remaining activity at 5 µM [7]: 61.2%

SMILES: Cc1sc(C(=O)NC2COC2)cc1-n1cc(NC(=O)Nc2c(F)cccc2Cl)cn1 [Compound 27, 4-(4-(3-(2-chloro-6-fluorophenyl)ureido)-1H-pyrazol-1-yl)-5-methyl-N-(oxetan-3-yl)thiophene-2-carboxamide]
- remaining activity at 10 µM ([1]; 10 uM): 96.9%
- remaining activity at 10 µM ([2]; 10 uM): 95%
- remaining activity at 10 µM ([3]; 10 uM): 87.5%
- remaining activity at 10 µM ([4]; 10 uM): 95.2%
- remaining activity at 10 µM ([5]; 10 uM): 78.9%
- remaining activity at 10 µM ([6]; 10 uM): 103%
- remaining activity at 10 µM ([7]; 10 uM): 129%

SMILES: O=C(Nc1cnn(-c2csc(C(=O)NC3COC3)c2)c1)Nc1c(F)cccc1Cl [Compound 25, 4-(4-(3-(2-chloro-6-fluorophenyl)ureido)-1H-pyrazol-1-yl)-N-(oxetan-3-yl)thiophene-2-carboxamide]
- remaining activity at 5 µM [1]: 95.2%
- remaining activity at 5 µM [2]: 91.3%
- remaining activity at 5 µM [3]: 87.2%
- remaining activity at 5 µM [4]: 110%
- remaining activity at 5 µM [5]: 85.7%
- remaining activity at 5 µM [6]: 61.4%
- remaining activity at 5 µM [7]: 73.9%
